pIC50: −log10 of the molar value. Where “and” joins values, the source holds several entries; their conditions need not be identical. Equal entries are not always repeated.
Tests used:
[1] = Evaluated for cytotoxicity using P388/VMDRC.04 cells (a subline of P388 murine leukemia cells expressing human recombinant human P-glycoprotein) in the absence of 10 nM vincristine
[2] = as above; remark: listed apart in the source
[3] = Multidrug-resistant reversal activity using P388/VMDRC.04 cells (a subline of P388 murine leukemia cells expressing human recombinant human P-glycoprotein) in the presence of 10 nM vincristine

| Compound | pIC50 [1] | pIC50 [2] | pIC50 [3] |
| --- | --- | --- | --- |
| COC(=O)C[C@@H](O)[C@H](Cc1ccccc1)N(C)C(=O)OCc1ccccc1 | 4.77 | < 4.05 | – |
| CCCCCCC[C@H]1OC(=O)C[C@@H](O)[C@H](Cc2ccccc2)N(C)C(=O)[C@H](C)OC(=O)[C@H]1C | – | 4.57 | 5.21 |
| CCCCCCC[C@H]1OC(=O)C[C@H](OCOC)[C@H](Cc2ccccc2)N(C)C(=O)[C@H](C(C)C)OC(=O)[C@H]1C | – | 4.38 | 5.26 and 5.27 |
| CC(C)[C@@H]1OC(=O)[C@@H](C)COC(=O)C[C@@H](O)[C@H](Cc2ccccc2)N(C)C1=O | 4.66 | – | – |
| CCCCCCC[C@H]1OC(=O)C[C@@H](O)[C@H](Cc2ccccc2)N(C)C(=O)COC(=O)[C@H]1C | 5.24 | 4.65 | – |
| CCCCCCC[C@H]1OC(=O)CC[C@H](Cc2ccccc2)N(C)C(=O)[C@H](C(C)C)OC(=O)[C@H]1C | 5.22 | 4.47 | – |
| CCCCCCC[C@H]1OC(=O)C[C@@H](OCOC)[C@H](Cc2ccccc2)N(C)C(=O)COC(=O)[C@H]1C | 5.64 | 4.82 | – |
| CCCCCCC[C@H]1OC(=O)C[C@@H](OCOC)[C@H](Cc2ccccc2)N(C)C(=O)[C@H](C(C)C)OC(=O)[C@H]1C | 5.21 | – | – |
| CCCCCCC[C@H]1OC(=O)C[C@@H](OCOC)[C@H](Cc2ccccc2)N(C)C(=O)[C@H](C)OC(=O)[C@H]1C | – | 4.71 | 5.23 |
| COCO[C@H]1CC(=O)O[C@H](C)[C@H](C)C(=O)OCC(=O)N(C)[C@H]1Cc1ccccc1 | – | < 4.00 | 4.37 |
| CCCC[C@H]1OC(=O)C[C@H](OCOC)[C@H](Cc2ccccc2)N(C)C(=O)COC(=O)[C@H]1C | 4.93 | – | – |
| COCO[C@@H]1CC(=O)O[C@H](C)[C@H](C)C(=O)O[C@@H](C(C)C)C(=O)N(C)[C@H]1Cc1ccccc1 | 5.12 | < 4.12 | – |
| CCCCCCC[C@H]1OC(=O)C[C@@H](O)[C@H](Cc2ccccc2)N(C)C(=O)[C@H](C(C)C)OC(=O)[C@H]1C [HAPALOSIN] | – | 4.83 | 5.32 |
| CCCCCCC[C@@H](O)[C@H](C)C(=O)O[C@H](C(=O)OC)C(C)C | – | < 4.08 | 4.80 |
| COCO[C@H](CC(=O)OC)[C@H](Cc1ccccc1)N(C)C(=O)OCc1ccccc1 | – | < 4.07 | 4.83 |
| CCCCCCC[C@@H]1CC(=O)O[C@@H](C(C)C)C(=O)N(C)[C@@H](Cc2ccccc2)[C@H](O)CC(=O)O1 | 5.21 | 4.62 | – |
| CCCCCCC[C@H]1OC(=O)C[C@H](OCOC)[C@H](Cc2ccccc2)N(C)C(=O)C(C)(C)OC(=O)[C@H]1C | – | 4.70 | 5.25 |
| CCCCCCC[C@@H]1CC(=O)O[C@@H](C(C)C)C(=O)N(C)[C@@H](Cc2ccccc2)[C@H](OCOC)CC(=O)O1 | 5.22 | 4.46 | – |
| CCCC[C@H]1OC(=O)C[C@H](O)[C@H](Cc2ccccc2)N(C)C(=O)COC(=O)[C@H]1C | – | < 4.10 | 4.74 |
| CCCCCCC[C@H]1OC(=O)C[C@H](O)[C@H](Cc2ccccc2)N(C)C(=O)[C@H](C(C)C)OC(=O)[C@H]1C | – | 4.37 | 5.24 |
| CC(C)[C@@H]1OC(=O)[C@@H](C)[C@@H](C)OC(=O)C[C@@H](O)[C@H](Cc2ccccc2)N(C)C1=O | 4.82 | < 4.00 | – |
| CCCCCCC[C@H]1OC(=O)C[C@H](O)[C@H](Cc2ccccc2)N(C)C(=O)C(C)(C)OC(=O)[C@H]1C | – | 4.55 | 5.37 |
| COCO[C@@H]1CC(=O)OC[C@H](C)C(=O)O[C@@H](C(C)C)C(=O)N(C)[C@H]1Cc1ccccc1 | 4.98 | < 4.00 | – |
| C[C@@H]1C(=O)OCC(=O)N(C)[C@@H](Cc2ccccc2)[C@@H](O)CC(=O)O[C@@H]1C | – | < 4.00 | < 4.00 |

Source: BindingDB's records for doi:10.1016/s0960-894x(99)00243-7 (Eisai Research Institute, 1999)
